Assay results as given in US7985536B2, “Method for regulating NO production in an isolated organ or tissue during warm perfusion” (priority 1999, dated 2011).
Where “and” joins values, the source holds several entries; their conditions need not be identical. Equal values may be shown once.

Key:
canine kidneys [1] = experiment: Regulation of NO flux by titrating L-arginine (nitrite, electrochemical detection)
Procedure: It is desirable to control the flux of NO in tissues, limbs and organs while they are deprived of physiologic blood flow. In certain clinical situations such as the case of septic shock it may be necessary to inhibit the production of NO. Therefore, the ability to regulate the production of NO was evaluated using the solution and process of the present invention. The production of NO was monitored using electrochemical detection using a carbon-modified anode in stream. Oxidation of NO transfers electrons from NO to the anode generating nitrosonium cation that is converted to nitrite as follows: NO→NO+→HONO→NO2^− Canine kidneys were perfused with the solution of the invention without L-arginine. The substrate L-arginine was added to the perfusion path separately to measure the ability to control NO production.
Controls consisted of kidneys perfused with L-Name to inhibit NOS function and kidneys perfused with the solution and process of the present invention but without L-arginine.

kidneys [2] = experiment: Control of NO3 production around a target during 48 hours perfusion
Procedure: Kidneys were perfused for 48 hours and during the perfusion the kidneys were monitored every 4 hours for the concentration of NO3^− in the circulation. Alternatively, NO concentration can be evaluated by measuring NO directly using an electrode or by measurement of the decrease in concentration of the substrate such as L-arginine. […] The perfusate was exchanged at the rate of 20% v/v every 4 hours with the concentration of L-arginine varying to control the production of NO.

isolated canine kidneys = experiment: Nitric oxide flux in isolated canine kidneys, 48 hour perfusion; conditions: for mean NO3 accumulation in the perfusion solution: following 48 hours, ion chromatograph, mean±standard deviation; for net weight gain (edema): isolated canine kidneys, L-NAME and L-NIL 100 μM added to the perfusion solution
Procedure: Kidneys were perfused with the perfusion solution and process described above for 48 hours.
The concentration of nitrate in the solution was determined by analysis on a Dionex DX-500 ion chromatograph using an AS-15 column and KOH eluant that varied in concentration by a programmed gradient. Alternatively, an electrode can be utilized to monitor NO flux in stream. All samples were analyzed in duplicate and were diluted by a factor of 11 and the values expressed as the mean±standard deviation for the kidneys perfused with the solution of the invention or control kidneys perfused with RPMI medium.

iNOS = conditions: cited from earlier work
canine kidneys [3] = experiment: CoPP in the perfusate during EMS perfusion: kidney metabolism and function
Procedure: (§1) Test group (n=3) canine kidneys were excised, cannulated, flushed of blood with EMS perfusion solution and placed on EMS perfusion at 32° C.-34° C. for 6 hours with either 5, 25 or 50 uM cobalt protoporphyrin (CoPP) added to the perfusate. Metabolic and functional evaluations consisted of quantification of the ex vivo kidney function during the period of HO-1 induction. Using the EMS technology, kidneys were maintained in a metabolically active state by perfusion at near physiologic temperature. Kidneys weighing approximately 70-90 gm were procured following brain death with concomitant warm ischemia of no more than 15 minutes. The kidneys were then transitioned to EMS perfusion at 32° C. to 34° C. The kidneys were evaluated for oxidative metabolism, vascular dynamics and organ function. The organ parameters were allowed to stabilize for one hour prior to the evaluation of function. Samples from the arterial and venous lines were collected, along with the urine produced during the perfusions. PO2 measurements for the arterial and venous samples were made with a Radiometer ABL5.
Oxygen consumption was calculated as: ml/min/gm=(PO2 artery−PO2 venous)×(flow rate).
The vascular resistance was calculated as: vasc resis=mean arterial pressure/mean flow rate
Creatinine was added to the perfusate as a tracer. The urine made during the EMS perfusions at 32° C. to 34° C. was collected and tested. The concentration of creatinine was measured on an IDEXX Vet Lab chemistry analyzer and the glomerular filtration rate (GFR) was calculated as: […]

hemeoxygenase-1 (HO-1) = experiment: Up-regulation of hemeoxygenase-1 by CoPP during EMS perfusion; parameters: species or system canine; conditions: individual kidneys
Procedure: EMS perfusion can be used to deliver a drug to an organ, section of anatomy or tissue in a targeted fashion. In addition, during any procedure the EMS supported ongoing metabolism and function can be monitored providing a mechanism to quantify the impact of the drug and any corresponding cellular response to it. For example, a compound known to cause the up-regulation of the heat-shock protein, hemeoxygenase-1 was administered to an isolated kidney being perfused in accordance with the technology of the present invention. The EMS technology provided adequate support of renal metabolism and function during ex vivo perfusion to increase expression of the hemeoxygenase-1 (HO-1) enzyme within six hours.
as §1, with “Metabolic” for “Test group (n=3) canine kidneys were excised, cannulated, flushed of blood with EMS perfusion solution and placed on EMS perfusion at 32° C.-34° C. for 6 hours with either 5, 25 or 50 uM cobalt protoporphyrin (CoPP) added to the perfusate. Metabolic”

canine kidneys [4] = experiment: CoPP in the perfusate during EMS perfusion: kidney metabolism and function; conditions: for F.R. (vascular flow rate) / GFR (glomerular filtration rate) / MAP (mean arterial pressure) / Urinary Protein / Urine Flow / Vasc Res (vascular resistance) / 02 Cons (oxygen consumption): n = 2, mean
human kidneys = experiment: Vasodilation in human kidneys perfused ex vivo, 12 hours
Procedure: Human kidneys were perfused ex vivo in order to evaluate the continued function of NOS in the formation of a continual flux of NO. • Group 1—Kidneys perfused with the solution and process of the invention, n=2 • Group 2—Kidneys perfused with heparinized blood with the pharmacologic agent, nitroprusside added at doses of 1.0, 10.0 and 100.0 mg, n=2
The ability to vasodilate and sustain stable perfusion pressures was determined in both groups during 12 hours of ex vivo perfusion.

kidneys [5] = experiment: In situ kidney perfusion during operative procedure, serum creatinine 24 hours posttreatment; format: in vivo; conditions: six hours in situ acellular perfusion, n = 2, L-NAME 100 uM
Description: The ability to control NOS function during in situ perfusion was observed by placement of cannulas in the aorta above the renal arteries and in the vena cava below the renal veins. In this manner, the renal vasculature could be isolated from vascular blood flow during surgical procedures repairing aortic aneurysm. The kidneys were perfused with the solution of the present invention by opening the perfusion circuit until the blood was flushed from the kidneys. The circuit was then closed and the kidneys perfused acellularly until the end of the surgical procedure and reflow of blood was restored. The cannulas were removed, the incision in the aorta and vena cava closed and blood flow reinstated. During six hours of acellular perfusion the concentration of NO3-was determined every 2 hours and the concentration of L-arginine was adjusted to control the NO flux around the set range using the method described above. Following reperfusion with vascular blood flow, the renal function was evaluated 24 hours posttreatment by determining the serum creatinine (SCR) concentration. Controls consisted of kidneys perfused without L-arginine and kidneys perfused with the addition of L-NAME (100 uM).

canine kidneys [6] = experiment: Endothelial-dependent vasodilation by acetylcholine in perfused canine kidneys; conditions: acetylcholine 1.0 mg; kidneys perfused with the solution of the invention
Procedure: Canine kidneys were tested for the ability to produce NO by induction with acetylcholine at a concentration of 1.0, 10.0 or 100 mg. The acetylcholine was administered to the perfusion path of kidneys using the solution and process of this invention and also in control kidneys that were perfused with RPMI medium alone.

canine kidneys [7] = experiment: Nitrate accumulation and acetylcholine vasodilation after 30 minutes warm ischemia and 18 hours perfusion; conditions: One mg of acetylcholine

Compound: N=C(N)NCCC[C@H](N)C(=O)O [L-arginine]
- NO2 (canine kidneys [1]; L-arginine 18 mg, n = 3): 1.2 ± 0.1 mg/dL
- NO2 (canine kidneys [1]; L-arginine 35 mg, n = 3): 3.1 ± 0.1 mg/dL
- NO2 (canine kidneys [1]; L-arginine 70 mg, n = 3): 5.8 ± 0.3 mg/dL
- NO2 (canine kidneys [1]; L-arginine 140 mg, n = 3): 11.2 ± 0.5 mg/dL
- NO3 (kidneys [2]; perfusion time 4 hours, target 200 ug/L/hr+/−10): 203 µg/L/h
- NO3 (kidneys [2]; perfusion time 8 hours): 180 µg/L/h
- NO3 (kidneys [2]; perfusion time 12 hours): 205 µg/L/h
- NO3 (kidneys [2]; perfusion time 16 hours): 195 µg/L/h
- NO3 (kidneys [2]; perfusion time 20 hours): 201 µg/L/h
- NO3 (kidneys [2]; perfusion time 24 hours): 210 µg/L/h
- NO3 (kidneys [2]; perfusion time 28 hours): 195 µg/L/h
- NO3 (kidneys [2]; perfusion time 32 hours): 202 µg/L/h
- NO3 (kidneys [2]; perfusion time 36 hours): 210 µg/L/h
- NO3 (kidneys [2]; perfusion time 40 hours): 190 µg/L/h
- NO3 (kidneys [2]; perfusion time 44 hours): 203 µg/L/h
- NO3 (kidneys [2]; perfusion time 48 hours): 209 µg/L/h

Compound: CC(=N)NCCCC[C@H](N)C(=O)O.Cl [L-NIL]
- mean NO3 accumulation in the perfusion solution (isolated canine kidneys): 0.51 ± 0.2 mg/L
- net weight gain (edema) (isolated canine kidneys): 206%
- selectivity for iNOS in comparison to the constitutive endothelial NOS isoform (iNOS): approximately 28 fold

Compound: C=CC1=C(C)c2cc3[n-]c(cc4nc(cc5[n-]c(cc1n2)c(C)c5CCC(=O)[O-])C(CCC(=O)[O-])=C4C)c(C)c3C=C.[Co+2].[H+].[H+] [CoPP, cobalt protoporphyrin]
- inhibition of the GFR (canine kidneys [3]; CoPP 50 μM): 91%
- reduction of urine flow (canine kidneys [3]; CoPP increased from 5 to 25 μM): 66%
- reduction of urine flow (canine kidneys [3]; CoPP increased to 50 μM): > 90%
- Hemeoxygenase-1, CoPP induction during EMS perfusion (hemeoxygenase-1 (HO-1); 5 μM CoPP): 9.6 IU and 13.2 IU
- Hemeoxygenase-1, CoPP induction during EMS perfusion (hemeoxygenase-1 (HO-1); 10 μM CoPP): 16.3 IU and 13.4 IU
- Hemeoxygenase-1, CoPP induction during EMS perfusion (hemeoxygenase-1 (HO-1); 25 μM CoPP): 16.1 IU and 16.7 IU
- Hemeoxygenase-1, CoPP induction during EMS perfusion (hemeoxygenase-1 (HO-1); 50 μM CoPP): 15.2 IU and 14.7 IU
- F.R. (vascular flow rate) (canine kidneys [4]; 5 uM CoPP): 114 cc/min
- GFR (glomerular filtration rate) (canine kidneys [4]; 5 uM CoPP): 7.02 mL/min
- MAP (mean arterial pressure) (canine kidneys [4]; 5 uM CoPP): 47 mmHg
- Urinary Protein (canine kidneys [4]; 5 uM CoPP): 0.16 gm/dL
- Urine Flow (canine kidneys [4]; 5 uM CoPP): 6 cc/hr
- Vasc Res (vascular resistance) (canine kidneys [4]; 5 uM CoPP): 0.41
- 02 Cons (oxygen consumption) (canine kidneys [4]; 5 uM CoPP, 6 hours EMS perfusion): 0.18 cc/min/gm
- 02 Cons (oxygen consumption) (canine kidneys [4]; 25 uM CoPP): 0.23 cc/min/gm
- F.R. (vascular flow rate) (canine kidneys [4]; 25 uM CoPP): 114 cc/min
- GFR (glomerular filtration rate) (canine kidneys [4]; 25 uM CoPP): 2.05 mL/min
- MAP (mean arterial pressure) (canine kidneys [4]; 25 uM CoPP): 47 mmHg
- Urinary Protein (canine kidneys [4]; 25 uM CoPP): 3.62 gm/dL
- Urine Flow (canine kidneys [4]; 25 uM CoPP): 2 cc/hr
- Vasc Res (vascular resistance) (canine kidneys [4]; 25 uM CoPP): 0.41
- 02 Cons (oxygen consumption) (canine kidneys [4]; 50 uM CoPP): 0.17 cc/min/gm
- F.R. (vascular flow rate) (canine kidneys [4]; 50 uM CoPP): 108 cc/min
- GFR (glomerular filtration rate) (canine kidneys [4]; 50 uM CoPP): 0.6 mL/min
- MAP (mean arterial pressure) (canine kidneys [4]; 50 uM CoPP): 48 mmHg
- Urinary Protein (canine kidneys [4]; 50 uM CoPP): 3.44 gm/dL
- Urine Flow (canine kidneys [4]; 50 uM CoPP): 0.5 cc/hr
- Vasc Res (vascular resistance) (canine kidneys [4]; 50 uM CoPP): 0.44
- reduction of GFR (canine kidneys [4]; CoPP increased from 5 to 25 μM): 71%

Compound: nitroprusside
- decrease in the mean arterial pressures (human kidneys; nitroprusside 1.0 mg, heparinized blood perfusion): did not lead to an appreciable decrease
- decrease in the mean arterial pressures (human kidneys; nitroprusside 10.0 mg, heparinized blood perfusion): 6 mmHg
- decrease in the mean arterial pressures (human kidneys; nitroprusside 100 mg, excessive vascular flow associated with renal damage): profound decrease

Compound: COC(=O)[C@@H](N)CCCNC(=N)N[N+](=O)[O-] [L-NAME, N^6-nitro-L-arginine methyl ester]
- mean NO3 accumulation in the perfusion solution (isolated canine kidneys): 0.16 ± 0.1 mg/L
- net weight gain (edema) (isolated canine kidneys): 350%
- NO2 (canine kidneys [1]; Control, kidneys perfused with L-Name): 0.17 ± 0.3 mg/dL
- SCr (kidneys [5]): 4.2 mg/dL

Compound: C[C@@H]1C[C@H]2[C@@H]3CCC4=CC(=O)C=C[C@]4(C)[C@@]3(F)[C@@H](O)C[C@]2(C)[C@@]1(O)C(=O)CO [dexamethasone]
- mean NO3 accumulation in the perfusion solution (isolated canine kidneys): 0.18 ± 0.1 mg/L

Compound: CC(=O)OCC[N+](C)(C)C [acetylcholine]
- mean drop in systolic pressures (canine kidneys [6]): 20 mmHg
- time to vasodilation after administration (canine kidneys [6]): ≤ 5 min
- time to decrease in mean arterial pressure (canine kidneys [7]; Group 1): ≤ 5 min
- decrease in mean arterial pressure (canine kidneys [7]; Group 1, perfusion with the solution of the invention): 10 mmHg
- decreased perfusion pressure (human kidneys; acetylcholine 1.0 mg, Group 1): 8 mmHg
- vascular flow rate after vasodilation (human kidneys; acetylcholine 1.0 mg, Group 1): > 150 cc/min
